Assay results taken from patent US20220241308A1, “NEURONAL FUNCTION MODULATING AGENT” (University of Tsukuba, priority 2019, published 2022).

Experiments:
[1] = tested on: MAP2K4 (mitogen-activated protein kinase 4); test: Gene expression experiment (real-time PCR) in SH-SY5Y cells: MAP2K4; assay type: cell-based; details: for expression of MAP2K4: 24 h
Description: (§1) SH-SY5Y cells were seeded in 100 mm-cell dishes (BD Biocoat) at concentrations of 3.7×10^5 cells/mL (10 mL/dish) and cultured for 24 h at 37° C. and 5% CO2. Culture medium used was F12/DMEM (Gibco) supplemented with 1% non-essential amino acids (Gibco), 15% FBS (Bio West), and 1% penicillin/streptomycin (Lonza). After 24 h, the culture medium was completely removed with an aspirator, 10 mL of culture medium Opti-MEM(Gibco) was added to each dish, and the cells were cultured for 24 h at 37° C. and 5% CO2. RNA was extracted from the culture cells and analyzed for the expression of genes described below by real-time PCR (designated as “Control” in FIGS. 2 to 8).
(§2) RNA extraction was performed using ISOGEN Reagent (Nippon Gene Co., Ltd.) in accordance with the protocol recommended by Nippo n Gene Co., Ltd. (see URL: https://www.nippongene.com/siyaku/product/extraction/tds/tds_isogen-rna-dna-protein.pdf). Real-time PCR was performed according to the protocol recommended by Thermo Fisher Scientific using a reagent kit for TaqMan Real-Time PCR (Thermo Fisher Scientific) (see URL: https://assets.thermofisher.com/TFS-Assets/LSG/manuals/4304449_TaqManPCRMM_UG.pdf).
(§3) 24 h after seeding 100 mm-cell dishes (BD Biocoat) with SH-SY5Y cells, the culture medium was completely removed with an aspirator, amyloid β protein (Beta-Amyloid 1-42, AnaSpec) was mixed with Opti-MEM (Gibco) so that the final concentration was 5 μM, 10 mL of the mixture was added to each dish, the cells were cultured for 24 h at 37° C. and 5% CO2, and RNA was extracted. Except for performing the procedure described above, gene expression was analyzed as described above (designated as “Aβ” in FIGS. 2 to 8).
(§4) 24 h after seeding 100 mm-cell dishes (BD Biocoat) with SH-SY5Y cells, the culture medium was completely removed with an aspirator, Sample 1 was mixed with culture medium Opti-MEM(Gibco) so that the final concentration was 12.56 μM, 9,990 μL of the mixture was added to each dish and allowed to stand for 10 min, amyloid β protein (Beta-Amyloid 1-42, AnaSpec) was mixed with Opti-MEM (Gibco) so that the final concentration was […], 10 μL of the mixture was added to each well, the cells were cultured for 24 h at 37° C. and 5% CO2, and RNA was extracted. Except for performing the procedure described above, Gene expression was analyzed as described above (designated as “Aβ+M3,5G” in FIGS. 2 to 8).
(§5) Except that Sample 2 was used instead of Sample 1, gene expression was analyzed as described above (designated as “Aβ+M” in FIGS. 2 to 8).
(§6) Except that Sample 3 was used instead of Sample 1, gene expression was analyzed as described above (designated as “Aβ+M3G” in FIGS. 2 to 8).
(§7) 24 h after seeding 100 mm-cell dishes (BD Biocoat) with SH-SY5Y cells, the culture medium was completely removed with an aspirator, 10 mL of culture medium Opti-MEM(Gibco) mixed with Sample 1 was added to each dish, the cells were cultured for 24 h at 37° C. and 5% CO2, and RNA was extracted. Except for performing the procedure described above, gene expression was analyzed as described above (designated as “M3,5G” in FIGS. 2 to 8).

[2] = tested on: MAPK8 (mitogen-activated protein kinase 8); test: Gene expression experiment (real-time PCR) in SH-SY5Y cells: MAPK8; assay type: cell-based; details: 24 h
Description: as §1, §2, §3, §4, §5
(§8) Except that Sample 3 was used instead of Sample 1, gene expression was analyzed as described above (designated as “Aβ+M3G” in FIGS. 2 to 8). […]

[3] = tested on: PI3KCA (phosphatidylinositol-4,5-bisphosphate 3-kinase catalyst subunit α); test: Gene expression experiment (real-time PCR) in SH-SY5Y cells: PI3KCA; assay type: cell-based; details: for expression of PI3KCA: 24 h
Description: as §1, §2, §3, §4, §5, §6, §7

[4] = tested on: PARP1 (poly(ADP-ribose) polymerase 1); test: Gene expression experiment (real-time PCR) in SH-SY5Y cells: PARP1; assay type: cell-based; details: 24 h
Description: as §1, §2, §3, §4, §5, §8

CASP3 (caspase-3) = test: Gene expression experiment (real-time PCR) in SH-SY5Y cells: CASP3; assay type: cell-based; details: for expression of CASP3: 24 h
Description: as §1, §2, §3, §4, §5, §6, §7

[5] = tested on: senescence-accelerated mice (SAMP8); test: Animal experiment: Morris water maze test (platform test, probe test); assay type: in vivo; details: SAMP8, oral, 30 days, 2.17 mg malvidin-3,5-diglucoside/kg/day
Description: Mice and administration regimens used in the experiment are as described below. Breeding conditions are common to all groups.
Compound (M3,5G)-treated (SAMP8) group: Sample 5 was orally administered to 10 senescence-accelerated mice (SAMP8) (16 weeks old, weighing 28-30 g, Japan SLC, Inc.) for a period of 30 days at a daily dose of 2.17 mg of malvidin-3,5-diglucoside per kg of mouse body weight (designated as “Senescence-accelerated mice+Compound (M3,5G)” in FIGS. 11 to 13).
Extract-treated (SAMP8) group: Sample 4 was orally administered to 10 senescence-accelerated mice (SAMP8) (16 weeks old, weighing 28-30 g, Japan SLC, Inc.) for a period of 30 days at a daily dose of 25 mg of extract powder (2.17 mg of malvidin-3,5-diglucoside in […]) per kg of mouse body weight (designated as “Senescence-accelerated mice+Extract” in FIGS. 11 to 13). […]
Mice were released into the pool and the time taken for the mice to arrive at the platform was measured. […]
On the last day of the test, the platform was removed from the pool and the mice were again released into the pool. The number of times the mouse crossed the former platform location was counted and the time the mouse spent on the former platform location was measured.

[6] = 12.56 μM, amyloid β protein-treated cells, compared to “Aβ”
[7] = 12.56 μM, amyloid β protein-treated cells, compared to “Control”
[8] = Sample 1 alone, no amyloid β, compared to “Control”
[9] = amyloid β protein-treated cells, 12.56 μM, ranked against malvidin and malvidin-3-glucoside

COc1cc(-c2[o+]c3cc(O)cc(OC4OC(CO)C(O)C(O)C4O)c3cc2OC2OC(CO)C(O)C(O)C2O)cc(OC)c1O (stereo not drawn) [M3,5G, Malvidin-3,5-diglucoside chloride]
expression of MAP2K4 [1, 6]: significantly high | expression of MAP2K4 [1, 7]: significantly high | expression of MAP2K4 [1, 8]: significantly increased | activity in increasing the expression of MAP2K4 [1, 9]: highest activity | expression of MAPK8 [2, 6]: significantly high | expression of MAPK8 [2, 7]: significantly high | expression of MAPK8 [2, 8]: significantly increased | expression of PI3KCA [3, 6]: significantly high | expression of PI3KCA [3, 7]: significantly high | expression of PI3KCA [3, 8]: significantly increased | activity in increasing the expression of PI3KCA [3, 9]: highest activity | expression of PARP1 [4, 6]: significantly high | expression of PARP1 [4, 8]: comparable | expression of CASP3 (CASP3 (caspase-3); [6]): significantly low | expression of CASP3 (CASP3 (caspase-3); [7]): significantly low | expression of CASP3 (CASP3 (caspase-3); [8]): significantly decreased | activity in decreasing the expression of CASP3 (CASP3 (caspase-3); [9]): highest activity | learn and memory ability of animals [5]: improvements
